“Also recorded” adds a separate entry of the source. Ends that are not written are not given here.
What was measured:
[1] = test system: microorganisms; assay: Peptide activities: binding, antimicrobial, growth or phenotype altering (Table 8)
Text: In certain embodiments, peptides described herein can have multiple activities. Thus for example, a peptide can have both binding/targeting activity and antimicrobial activity. Such peptides can be used, e.g., in a chimeric construct, for any or all of these properties. Thus, for example, a peptide designated “B” in Table 8 can be used as a targeting peptide. If it is also designated G or M it can also be used for antimicrobial activity.

[2] = test system: bacteria; assay: Binding of targeting peptides to microorganisms (Table 3); conditions: preferably 1x PBS; for Target(s) (microorganisms bound by the targeting peptide) / Target(s) (microorganism bound by the targeting peptide): peptide binding in aqueous buffers that varied depending on peptide solubility
[3] = test system: microorganisms; assay: Morphology, biofilm and growth disruption by peptides (Table 5); assay type: cell-based; design: key: A: Peptide aggregates; B: Less hyphal formation; Clumps; Diffuse clumps and small polyps; F: Diffuse growth; H: Thin; I: Growth inhibition; Microcolony formation; Rippled; Small polyps; Thick; W: Halo formation on top, microlonies on bottom
Text: In certain embodiments peptides that induce alterations in phenotype or other biological activities can also be used as antimicrobial effector moieties.

[4] = microorganism the targeting peptide binds, binding in aqueous buffers that varied with peptide solubility

| Substance | Activities [1] | Target(s) (microorganisms bound by the targeting peptide) [2] | Organism, effect (morphology, biofilm and growth disruption) ([3]; S. pneumoniae) | Organism, effect ([3]; MRSA) | further results |
| --- | --- | --- | --- | --- | --- |
| PF-566 (EAQQVTQQLGADFNAITTPTATKV; Peptide with targeting and/or antimicrobial activity) | G B | P. mirabilis; also recorded: S. pneumoniae | S. pneumoniae (D) | – | Organism, effect (morphology, biofilm and growth disruption) ([3]; B. subtilis): B. subtilis (C); Organism, effect (morphology, biofilm and growth disruption) ([3]; C. jeikeium): C. jeikeium (C); Organism, effect (morphology, biofilm and growth disruption) ([3]; C. jejuni): C. jejuni (D); Organism, effect (morphology, biofilm and growth disruption) ([3]; M. luteus): M. luteus (D); Organism, effect (morphology, biofilm and growth disruption) ([3]; MRSA): MRSA (M) |
| PF-587 (ASGKYQSYLLNVYVDSKKDRLDIFDKLKAKAKFVL; Peptide with targeting and/or antimicrobial activity) | G B | S. epidermidis and M. luteus and E. coli and MRSA and S. pneumoniae and E. faecalis and C. jeikeium | S. pneumoniae (C) | – | – |
| PF-470 (PYSDSYATRPHWEQHRAR; Peptide with targeting and/or antimicrobial activity) | G B | M. luteus and E. coli and MRSA and E. faecalis and C. jeikeium and C. jejuni | – | – | Organism, effect (morphology, biofilm and growth disruption) ([3]; C. jejuni): C. jejuni (A); Organism, effect (morphology, biofilm and growth disruption) ([3]; E. faecalis): E. faecalis (A) |
| PF-517 (VKPTMTASLISTVC; Peptide with targeting and/or antimicrobial activity) | G B | C. jejuni | S. pneumoniae (M) | – | – |
| PF-036 (ILNRLSRIVSNEVTSLIYSLK; Peptide with targeting and/or antimicrobial activity) | G B | – | – | MRSA (R) | Target(s) [2, 4]: S. epidermidis and M. luteus and P. mirabilis and E. coli and C. albicans and MRSA and S. pneumoniae and C. jejuni; Organism, effect ([3]; C. jeikeium): C. jeikeium (A); Organism, effect ([3]; M. luteus): M. luteus (A); Organism, effect ([3]; S. epidermidis): S. epidermidis (S) |
| PF-041 (ELLVILPGFI; Peptide with targeting and/or antimicrobial activity) | G B | – | – | MRSA (M) | Target(s) [2, 4]: MRSA; Organism, effect ([3]; S. epidermidis): S. epidermidis (R) |
| PF-635 (chain 1 MNAHGHSLIFQKMIVHAFAFFSKQKNYLYF; chain 2 MNAHGHSLIFQKMIVHAFAFFSKQKNYLYF; Peptide with targeting and/or antimicrobial activity) | G B | – | S. pneumoniae (D) | – | Target(s) (microorganism bound by the targeting peptide) [2]: S. epidermidis and P. aeruginosa and C. albicans and MRSA and S. pneumoniae and E. faecalis and C. jeikeium; Organism, effect (morphology, biofilm and growth disruption) ([3]; C. albicans): C. albicans (B); Organism, effect (morphology, biofilm and growth disruption) ([3]; C. jeikeium): C. jeikeium (D); Organism, effect (morphology, biofilm and growth disruption) ([3]; E. faecalis): E. faecalis (D); Organism, effect (morphology, biofilm and growth disruption) ([3]; MRSA): MRSA (D); Organism, effect (morphology, biofilm and growth disruption) ([3]; S. epidermidis): S. epidermidis (M) |
| PF-756 (chain 1 DALLRLA; chain 2 DALLRLA; Peptide with targeting and/or antimicrobial activity) | G B | – | S. pneumoniae (A) | – | Target(s) (microorganism bound by the targeting peptide) [2]: S. epidermidis and M. luteus and C. albicans and MRSA and C. jeikeium |
| PF-045 (LDINDYRSTY; Peptide with targeting and/or antimicrobial activity) | G B | – | – | MRSA (S) | Target(s) [2, 4]: S. epidermidis; also recorded: E. coli; also recorded: E. faecalis; also recorded: C. jejuni |
| PF-472 (MHISHLLDEVEQTEREKAVNVLENMNGNVI; Peptide with targeting and/or antimicrobial activity) | G B | S. epidermidis and E. coli and P. aeruginosa and C. albicans and MRSA and S. pneumoniae and E. faecalis and C. jeikeium | S. pneumoniae (R) | – | Organism, effect (morphology, biofilm and growth disruption) ([3]; C. jejuni): C. jejuni (R); Organism, effect (morphology, biofilm and growth disruption) ([3]; E. faecalis): E. faecalis (A); Organism, effect (morphology, biofilm and growth disruption) ([3]; MRSA): MRSA (C) |
| PF-459 (EKRMSFNENQSHRPLL; Peptide with targeting and/or antimicrobial activity) | G B | P. aeruginosa | S. pneumoniae (H) | – | – |
| PF-064 (DYYGKE; Peptide with targeting and/or antimicrobial activity) | G B | – | – | MRSA (M) | Target(s) [2, 4]: E. coli; Organism, effect ([3]; S. epidermidis): S. epidermidis (D) |
| PF-457 (INKYHHIA; Peptide with targeting and/or antimicrobial activity) | G B | C. albicans; also recorded: S. pneumoniae; also recorded: E. faecalis; also recorded: C. jeikeium | S. pneumoniae (M) | – | – |
| PF-053 (KLFGQWGPELGSIYILPALIGSIILIAIVTLILRAMRK; Peptide with targeting and/or antimicrobial activity) | G B | – | – | MRSA (D) | Target(s) [2, 4]: S. epidermidis and M. luteus and E. coli and P. aeruginosa and C. albicans and MRSA and S. pneumoniae and E. faecalis; Organism, effect ([3]; B. subtilis): B. subtilis (H); Organism, effect ([3]; C. albicans): C. albicans (A); Organism, effect ([3]; C. jeikeium): C. jeikeium (D); Organism, effect ([3]; C. jejuni): C. jejuni (D); Organism, effect ([3]; E. coli): E. coli (A); Organism, effect ([3]; E. faecalis): E. faecalis (A); Organism, effect ([3]; M. luteus): M. luteus (D); Organism, effect ([3]; P. aeruginosa): P. aeruginosa (A); Organism, effect ([3]; S. epidermidis): S. epidermidis (C); Organism, effect ([3]; S. pneumoniae): S. pneumoniae (S) |
| PF-515 (DKSTQDKDIKQAKLLAQELGL-NH2) | G B | S. epidermidis; also recorded: C. albicans; also recorded: S. pneumoniae; also recorded: C. jeikeium | S. pneumoniae (H) | – | – |
| PF-549 (TGIGPIARPIEHGLDS; Peptide with targeting and/or antimicrobial activity) | G B | E. coli; also recorded: C. albicans; also recorded: S. pneumoniae; also recorded: C. jeikeium | – | – | Organism, effect (morphology, biofilm and growth disruption) ([3]; B. subtilis): B. subtilis (D); Organism, effect (morphology, biofilm and growth disruption) ([3]; MRSA): MRSA (C) |
| PF-557 (AANKAREQAAAEAKRKAEEQAR; Peptide with targeting and/or antimicrobial activity) | G B | S. pneumoniae | – | – | Organism, effect (morphology, biofilm and growth disruption) ([3]; B. subtilis): B. subtilis (D) |
| PF-046 (LDFYLTKHLTLML; Peptide with targeting and/or antimicrobial activity) | G B | – | – | MRSA (R) | Target(s) [2, 4]: E. coli; also recorded: E. faecalis; also recorded: C. jeikeium; Organism, effect ([3]; C. jeikeium): C. jeikeium (R); Organism, effect ([3]; S. epidermidis): S. epidermidis (C) |
| PF-446 (SGNEKV; Peptide with targeting and/or antimicrobial activity) | G B | M. luteus; also recorded: C. jeikeium | S. pneumoniae (H) | – | – |
| PF-542 (KKDNPSLNDQDKNAVLNLLALAK; Peptide with targeting and/or antimicrobial activity) | G B | C. jeikeium | S. pneumoniae (H) | – | – |
| PF-444 (MAAKLWEEGKMVYASSASMTKRLKLAMSKV; Peptide with targeting and/or antimicrobial activity) | G B | M. luteus; also recorded: C. albicans; also recorded: S. pneumoniae; also recorded: C. jeikeium | S. pneumoniae (R) | – | Organism, effect (morphology, biofilm and growth disruption) ([3]; E. coli): E. coli (R); Organism, effect (morphology, biofilm and growth disruption) ([3]; E. faecalis): E. faecalis (C); Organism, effect (morphology, biofilm and growth disruption) ([3]; MRSA): MRSA (C); Organism, effect (morphology, biofilm and growth disruption) ([3]; S. epidermidis): S. epidermidis (C) |
| PF-558 (ADAPPPLIVRYS; Peptide with targeting and/or antimicrobial activity) | G B | S. epidermidis; also recorded: E. coli; also recorded: C. albicans; also recorded: C. jeikeium; also recorded: C. jejuni | S. pneumoniae (R) | – | Organism, effect (morphology, biofilm and growth disruption) ([3]; B. subtilis): B. subtilis (D); Organism, effect (morphology, biofilm and growth disruption) ([3]; C. jejuni): C. jejuni (H); Organism, effect (morphology, biofilm and growth disruption) ([3]; MRSA): MRSA (C); Organism, effect (morphology, biofilm and growth disruption) ([3]; S. epidermidis): S. epidermidis (M) |
| PF-360 (MEQKVKVIFVPRSKPDNQLKTFVSAVLFKA; Peptide with targeting and/or antimicrobial activity) | G B | – | – | MRSA (H) | Target(s) ([2]; microorganism bound by the targeting peptide, binding in aqueous buffers chosen by peptide solubility): S. epidermidis; also recorded: B. subtilis; also recorded: E. coli; also recorded: P. aeruginosa; also recorded: C. albicans; also recorded: E. faecalis; also recorded: C. jeikeium; also recorded: C. jejuni; Organism, effect ([3]; E. coli): E. coli (C); Organism, effect ([3]; S. epidermidis): S. epidermidis (S) |

Source: patent US9597407B2, “Targeted antimicrobial moieties” (C3 Jian, Inc., priority 2009, dated 2017)
